Structures are written as SMILES.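 48-hour exposure; five concentrations; linearly interpolated endpoints. GI50: concentration for 50% inhibition of growth.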 Active and inactive are the calls of the source. Rule as the data show it: active = GI50 up to about 1.1 µM and inactive = higher.

Among the test systems are 786-0; COLO 205; HCT-116; HCT-15; IGROV-1; Malme-3M; NCI-H23; NCI-H522; OVCAR-3; OVCAR-4; OVCAR-8; SK-OV-3; SN12C; SNB-19; SR; UO-31; DU-145; MDA-MB-435; MDA-N; T47D.
What all share (experiment): DTP human tumour cell line panel, 48 h

The term GI50 denotes the concentration at which growth is held to half of that of the control. Take `NS(=O)(=O)c1ccc(NC2=CC(=O)C(=O)c3ccccc32)cc1`: the GI50 with 786-0 was > 100 µM (inactive); in the assay with COLO 205, > 100 µM (inactive); with HCT-116 it was 76.4 µM (inactive); in the assay on HCT-15 it was greater than 100 µM; in the assay on IGROV-1 it was > 100 µM (inactive); with Malme-3M, > 100 µM (inactive). The GI50 in the assay on NCI-H23, in the assay with NCI-H522, in the assay with OVCAR-3, in the assay with OVCAR-4, in the assay with OVCAR-8 and with SK-OV-3 was > 100 µM (inactive) in each case. In addition, the GI50 in the assay on SN12C, with SNB-19, in the assay on SR and in the assay on UO-31 was > 100 µM (inactive) throughout.
With `CN(C)/C=C/C(=O)c1cccc(C(=O)/C=C/N(C)C)n1`, the GI50 in the assay with 786-0 was > 100 µM (inactive); with COLO 205, > 100 µM (inactive); with HCT-116, > 100 µM (inactive); in the assay on HCT-15, greater than 100 µM; with IGROV-1 it was > 100 µM (inactive); in the assay on Malme-3M, > 100 µM (inactive). Moreover, the GI50 in the assay on NCI-H23 is > 100 µM (inactive); with NCI-H522, > 100 µM (inactive); with OVCAR-3, > 100 µM (inactive); in the assay with OVCAR-4, > 100 µM (inactive); in the assay on OVCAR-8, 80.4 µM (inactive); with SK-OV-3, > 100 µM (inactive). Also, the GI50 in the assay on SN12C, in the assay on SNB-19, in the assay with SR and in the assay with UO-31 was > 100 µM (inactive) each time.
On to `N#Cc1ccc(Oc2nc3ccccc3nc2-c2ccccc2)cc1`, for which the GI50 in the assay with 786-0 is > 100 µM (inactive); in the assay with COLO 205, > 100 µM (inactive); in the assay with DU-145 it was > 100 µM (inactive); in the assay with HCT-116, > 100 µM (inactive); with HCT-15, greater than 100 µM; in the assay with IGROV-1 it was > 100 µM (inactive). Also, the GI50 in the assay on MDA-MB-435, in the assay on MDA-N, in the assay on Malme-3M, in the assay with NCI-H23, in the assay on NCI-H522 and with OVCAR-3 was > 100 µM (inactive) in each case. The GI50 in the assay with OVCAR-4, with SK-OV-3, with SN12C, with SNB-19 and in the assay with UO-31 was > 100 µM (inactive) in each case.
With `N#Cc1nsnc1-c1nc(-c2nsnc2C#N)nc(-c2nsnc2C#N)n1`, the GI50 is 61.9 µM (inactive) in the assay with 786-0; > 100 µM (inactive) with COLO 205; > 100 µM (inactive) in the assay on DU-145; > 100 µM (inactive) in the assay on HCT-116; greater than 100 µM with HCT-15; > 100 µM (inactive) with IGROV-1. The GI50 in the assay with MDA-MB-435, in the assay with MDA-N, with Malme-3M, in the assay on NCI-H23, in the assay on NCI-H522 and in the assay with OVCAR-3 was > 100 µM (inactive) each time. Besides, the GI50 in the assay with OVCAR-4, in the assay with OVCAR-8, in the assay with SN12C, in the assay on SNB-19, with SR and with UO-31 was > 100 µM (inactive) in each case.
Turning to `CN1C(=O)N(c2nc3ccccc3[nH]2)C(C)(C)C1=O`, the GI50 in the assay on 786-0 is > 100 µM (inactive); in the assay on COLO 205 it was > 100 µM (inactive); with HCT-116 it was > 100 µM (inactive); in the assay on HCT-15, greater than 100 µM; in the assay on IGROV-1, > 100 µM (inactive); in the assay with Malme-3M it was > 100 µM (inactive). The GI50 in the assay on NCI-H23, in the assay with NCI-H522, with OVCAR-3, in the assay with OVCAR-4, in the assay with OVCAR-8 and with SK-OV-3 was > 100 µM (inactive) in each case. Also, the GI50 in the assay with SN12C, in the assay with SNB-19, with SR and with UO-31 was > 100 µM (inactive) each time.
Turning to `C[C@]12CCC(N3CCCC3)CC1=CC[C@@H]1[C@@H]2CC[C@]2(C)C(O)[C@H](n3ccnc3)C[C@@H]12` (stereo not given in full), the GI50 is 41.6 µM (inactive) in the assay with 786-0; 30.3 µM (inactive) in the assay on COLO 205; > 100 µM (inactive) in the assay on DU-145; 38.1 µM (inactive) in the assay on HCT-116; 20.9 µM with HCT-15; 59.8 µM (inactive) in the assay with IGROV-1. Also, the GI50 in the assay with MDA-MB-435 is 36.6 µM (inactive); with MDA-N, 44.2 µM (inactive); in the assay with NCI-H23 it was 53.6 µM (inactive); in the assay with NCI-H522 it was 49.9 µM (inactive); with OVCAR-3, 32.3 µM (inactive); with OVCAR-4, 73.6 µM (inactive). The GI50 with OVCAR-8 is 61.2 µM (inactive); in the assay on SN12C, 46.5 µM (inactive); in the assay with SNB-19 it was > 100 µM (inactive); in the assay on SR it was 15.3 µM (inactive); in the assay on UO-31, 44.6 µM (inactive).
As for `c1ccc2c(c1)SC1=Nc3sc4ccccc4[n+]3CN12`, the GI50 with 786-0 was 25.9 µM (inactive); in the assay on COLO 205 it was 2.13 µM (inactive); in the assay on DU-145, 27.8 µM (inactive); in the assay on HCT-116 it was 18.5 µM (inactive); in the assay with HCT-15 it was 40.2 µM; in the assay with IGROV-1 it was 11.8 µM (inactive). In addition, the GI50 in the assay with MDA-MB-435 was 19.7 µM (inactive); in the assay on Malme-3M it was 10.5 µM (inactive); in the assay with NCI-H23, 6.01 µM (inactive); with NCI-H522, 2.7 µM (inactive); in the assay on OVCAR-3 it was 2.88 µM (inactive); in the assay with OVCAR-8, 26.4 µM (inactive). Also, the GI50 was 17.2 µM (inactive) with SK-OV-3; 20.8 µM (inactive) in the assay with SN12C; 19.9 µM (inactive) with SNB-19; 16.9 µM (inactive) in the assay with SR; 18.5 µM (inactive) in the assay on T47D; 18.5 µM (inactive) with UO-31.
Take `Nc1ccc(Oc2ccc(C3(c4ccc(Oc5ccc(N)c(O)c5)cc4)C4CC5C6CC7CC5C3C(C7)C6C4)cc2)cc1O`: the GI50 with 786-0 is 1.73 µM (inactive); in the assay on COLO 205, 2.37 µM (inactive); in the assay with DU-145, 1.86 µM (inactive); in the assay with HCT-116, 1.71 µM (inactive); in the assay with HCT-15, 2.4 µM; with IGROV-1, 2.2 µM (inactive). In addition, the GI50 with MDA-MB-435 was 1.53 µM (inactive); with MDA-N, 1.36 µM (inactive); with Malme-3M, 3.23 µM (inactive); in the assay with NCI-H23, 2.47 µM (inactive); in the assay on NCI-H522, 1.83 µM (inactive); with OVCAR-3, 1.52 µM (inactive). In addition, the GI50 with OVCAR-4 is 2.35 µM (inactive); with OVCAR-8, 1.8 µM (inactive); with SN12C it was 1.55 µM (inactive); with SNB-19, 3.3 µM (inactive); with SR it was 2.25 µM (inactive); in the assay on UO-31, 2.04 µM (inactive).
Regarding `O=C1C2C=CC(n3[nH]c(=O)n(Cc4ccccc4)c3=O)CC2C(=O)N1c1cccc(Cl)c1` (stereo not given), the GI50 in the assay on 786-0 was > 100 µM (inactive); with COLO 205, > 100 µM (inactive); with HCT-116, > 100 µM (inactive); in the assay on HCT-15, greater than 100 µM; with IGROV-1, > 100 µM (inactive); in the assay on Malme-3M it was > 100 µM (inactive). Also, the GI50 in the assay with NCI-H23, in the assay on NCI-H522, with OVCAR-3, in the assay on OVCAR-4, in the assay on OVCAR-8 and in the assay with SK-OV-3 was > 100 µM (inactive) throughout. Also, the GI50 with SN12C, with SNB-19, in the assay with SR and with UO-31 was > 100 µM (inactive) each time.
As to `O=C1OC(c2ccccc2)=N/C1=C/NC(Cc1ccccc1)C(=O)O` (stereo not given), the GI50 in the assay with 786-0 was > 100 µM (inactive); in the assay with COLO 205, > 100 µM (inactive); with HCT-116, > 100 µM (inactive); with HCT-15 it was greater than 100 µM; in the assay with IGROV-1 it was > 100 µM (inactive); with Malme-3M, > 100 µM (inactive). For the same molecule, the GI50 in the assay with NCI-H23, in the assay with NCI-H522, with OVCAR-3, with OVCAR-4, with OVCAR-8 and in the assay with SK-OV-3 was > 100 µM (inactive) throughout. For the same molecule, the GI50 in the assay with SN12C, in the assay with SNB-19, with SR and in the assay on UO-31 was > 100 µM (inactive) throughout.
As to `O=C1C(Cl)C(c2cc(Br)cc(Br)c2O)N1n1cnc2ccccc2c1=O` (stereo not given), the GI50 in the assay on 786-0 is 26.2 µM (inactive); in the assay with COLO 205, 29.2 µM (inactive); in the assay with HCT-116, 18.9 µM (inactive); in the assay on HCT-15, 20.3 µM; in the assay on IGROV-1, 23.4 µM (inactive); in the assay with Malme-3M it was 19 µM (inactive). For the same molecule, the GI50 in the assay on NCI-H23 is 23.8 µM (inactive); in the assay on NCI-H522, 19 µM (inactive); with OVCAR-3, 22.3 µM (inactive); in the assay on OVCAR-4 it was 9.55 µM (inactive); with OVCAR-8, 24.7 µM (inactive); with SK-OV-3, 13.6 µM (inactive). The GI50 in the assay on SN12C was 27.5 µM (inactive); with SNB-19, 30.3 µM (inactive); in the assay on SR, 7.76 µM (inactive); in the assay with UO-31, 20.7 µM (inactive).
Turning to `CC1=CC(=O)CC2(C)CC[C@@H]3C[C@]12OC3(C)C` (stereo not given in full), the GI50 in the assay on 786-0 is > 100 µM (inactive); in the assay on COLO 205 it was > 100 µM (inactive); with HCT-116 it was > 100 µM (inactive); in the assay with HCT-15, greater than 100 µM; with IGROV-1, > 100 µM (inactive); in the assay on Malme-3M it was > 100 µM (inactive). Moreover, the GI50 in the assay with NCI-H23, in the assay on NCI-H522, with OVCAR-3, in the assay on OVCAR-4, in the assay with OVCAR-8 and in the assay with SK-OV-3 was > 100 µM (inactive) throughout. For the same molecule, the GI50 in the assay with SN12C, in the assay on SNB-19, with SR and in the assay with UO-31 was > 100 µM (inactive) in each case.
